Assay results from patent US20230035892A1, “METHODS AND COMPOSITIONS FOR TREATING CANCER” (Flagship Pioneering Innovations V, Inc., priority 2019, published 2023).

Experiments:
Assay type in all cases: cell-based
[1] = system: sgGrk2-expressing Miapaca2 cells; assay: Colony formation assay in sgGrk2-expressing cells (target specificity); settings: Miapaca
Protocol: To assess the target specificity of the GRK2 small molecule antagonist of Formula III-26, sgGRK2-expressing cells were treated with the compound of Formula III-26. If GRK2 knockout is complete and the compound of Formula III-26 inhibits only GRK2, the addition of the compound of Formula III-26 should not induce any additional growth defect compared to sgRNA KO alone. […] This is potentially due to the lower GRK2 knockout efficiency that can be achieved in PAXF1657 compared to Miapaca2, as shown in Table 16.

PAXF1657 = assay: Proliferation, percent viability normalized to DMSO
From the text: (§1) The GRK2 small molecule antagonist of Formula III-26 was used to evaluate the effect of a small molecule GRK2 antagonist on the proliferation of pancreatic cancer cell lines Miapaca2, Panc1, BXPC3, PAXF1657, PAXF1997 and Capan1. Values represent percent viability normalized to DMSO.

PANC1 = assay: as above; settings: Homo sapiens, PANC-1
From the text: as §1

PAXF1997 = assay: as above
From the text: as §1

BXPC3 = assay: as above; settings: Homo sapiens, BXPC-3
From the text: as §1

Capan1 = assay: as above; settings: Homo sapiens, CAPAN-1
From the text: as §1

MIAPACA2 = assay: as above; settings: Homo sapiens, MIA PaCa-2
From the text: as §1

`Cn1c(CNc2cccc(C(=O)NCc3ccccc3C(F)(F)F)c2)nnc1-c1ccncc1` [Compound of Formula III-26] was tested, and the “Difference between rel +dox and −dox signal” value ([1]; 1 μM, sgGRK2-pooled) was 0.00, the “Rel +dox” value ([1]; 1 μM, sgGRK2-pooled) was 0.76 and the “Rel −dox” value ([1]; 1 μM, sgGRK2-pooled) was 0.75. The “Difference between rel +dox and −dox signal” value ([1]; 1 μM, sgNTC) was 0.05, the “Rel +dox” value ([1]; 1 μM, sgNTC) was 0.77 and the “Rel −dox” value ([1]; 1 μM, sgNTC) was 0.81. The “Difference between rel +dox and −dox signal” value ([1]; 3 μM, sgGRK2-pooled) was 0.04, the “Rel +dox” value ([1]; 3 μM, sgGRK2-pooled) was 0.43 and the “Rel −dox” value ([1]; 3 μM, sgGRK2-pooled) was 0.47. For the same compound, the “Difference between rel +dox and −dox signal” value ([1]; 3 μM, sgNTC) was 0.12, the “Rel +dox” value ([1]; 3 μM, sgNTC) was 0.53 and the “Rel −dox” value ([1]; 3 μM, sgNTC) was 0.65. For the same compound, the viability at 0.005 µM (PAXF1657; PAXF1657, dose 0.005 μM) was 111%, the viability at 0.014 µM (PAXF1657; PAXF1657, dose 0.014 μM) was 111% and the viability at 0.041 µM (PAXF1657; PAXF1657, dose 0.041 μM) was 116%. The viability at 0.123 µM (PAXF1657; PAXF1657, dose 0.123 μM) was 118%, the viability at 0.37 µM (PAXF1657; PAXF1657, dose 0.370 μM) was 115% and the viability at 1.111 µM (PAXF1657; PAXF1657, dose 1.111 μM) was 110%. It also gave a viability at 3.333 µM (PAXF1657; PAXF1657, dose 3.333 μM) of 102%, a viability at 10 µM (PAXF1657; PAXF1657, dose 10.000 μM) of 88.6% and a viability at 30 µM (PAXF1657; PAXF1657, dose 30.000 μM) of 69%. The viability at 0.005 µM (PANC1; Panc1, dose 0.005 μM) was 103%, the viability at 0.014 µM (PANC1; Panc1, dose 0.014 μM) was 112% and the viability at 0.041 µM (PANC1; Panc1, dose 0.041 μM) was 113%. It also gave a viability at 0.123 µM (PANC1; Panc1, dose 0.123 μM) of 113%, a viability at 0.37 µM (PANC1; Panc1, dose 0.370 μM) of 113% and a viability at 1.111 µM (PANC1; Panc1, dose 1.111 μM) of 113%. The viability at 3.333 µM (PANC1; Panc1, dose 3.333 μM) was 100%, the viability at 10 µM (PANC1; Panc1, dose 10.000 μM) was 85.2% and the viability at 30 µM (PANC1; Panc1, dose 30.000 μM) was 86.2%. It also gave a viability at 0.005 µM (PAXF1997; PAXF1997, dose 0.005 μM) of 111%, a viability at 0.014 µM (PAXF1997; PAXF1997, dose 0.014 μM) of 111% and a viability at 0.041 µM (PAXF1997; PAXF1997, dose 0.041 μM) of 112%. The viability at 0.123 µM (PAXF1997; PAXF1997, dose 0.123 μM) was 114%, the viability at 0.37 µM (PAXF1997; PAXF1997, dose 0.370 μM) was 118% and the viability at 1.111 µM (PAXF1997; PAXF1997, dose 1.111 μM) was 110%. For the same compound, the viability at 3.333 µM (PAXF1997; PAXF1997, dose 3.333 μM) was 104%, the viability at 10 µM (PAXF1997; PAXF1997, dose 10.000 μM) was 83.7% and the viability at 30 µM (PAXF1997; PAXF1997, dose 30.000 μM) was 81.4%. For the same compound, the viability at 0.005 µM (BXPC3; BXPC3, dose 0.005 μM) was 106%, the viability at 0.014 µM (BXPC3; BXPC3, dose 0.014 μM) was 105% and the viability at 0.041 µM (BXPC3; BXPC3, dose 0.041 μM) was 104%. The viability at 0.123 µM (BXPC3; BXPC3, dose 0.123 μM) was 104%, the viability at 0.37 µM (BXPC3; BXPC3, dose 0.370 μM) was 108% and the viability at 1.111 µM (BXPC3; BXPC3, dose 1.111 μM) was 102%. It also gave a viability at 3.333 µM (BXPC3; BXPC3, dose 3.333 μM) of 91.5%, a viability at 10 µM (BXPC3; BXPC3, dose 10.000 μM) of 77% and a viability at 30 µM (BXPC3; BXPC3, dose 30.000 μM) of 75.8%. It also gave a viability at 0.005 µM (Capan1; Capan1, dose 0.005 μM) of 107%, a viability at 0.014 µM (Capan1; Capan1, dose 0.014 μM) of 108% and a viability at 0.041 µM (Capan1; Capan1, dose 0.041 μM) of 112%. It also gave a viability at 0.123 µM (Capan1; Capan1, dose 0.123 μM) of 114%, a viability at 0.37 µM (Capan1; Capan1, dose 0.370 μM) of 112% and a viability at 1.111 µM (Capan1; Capan1, dose 1.111 μM) of 106%. For the same compound, the viability at 3.333 µM (Capan1; Capan1, dose 3.333 μM) was 100%, the viability at 10 µM (Capan1; Capan1, dose 10.000 μM) was 90% and the viability at 30 µM (Capan1; Capan1, dose 30.000 μM) was 95.4%. It also gave a viability at 0.005 µM (MIAPACA2; Miapaca2, dose 0.005 μM) of 102%, a viability at 0.014 µM (MIAPACA2; Miapaca2, dose 0.014 μM) of 105% and a viability at 0.041 µM (MIAPACA2; Miapaca2, dose 0.041 μM) of 108%. For the same compound, the viability at 0.123 µM (MIAPACA2; Miapaca2, dose 0.123 μM) was 111%, the viability at 0.37 µM (MIAPACA2; Miapaca2, dose 0.370 μM) was 114% and the viability at 1.111 µM (MIAPACA2; Miapaca2, dose 1.111 μM) was 99.3%.
